Source: patent US10758516B2, “Methods and compositions for the treatment of gliomas” (University of Cincinnati, priority 2017, dated 2020)

What was measured:
EP2 receptor [1] = target: T1, EP2 receptor (Homo sapiens, UniProt P43116); test: PGE2-mediated cAMP signaling in SF767 glioma cells; format: cell-based; conditions: for PGE2-promoted cAMP synthesis: antagonist 1 μM and 10 μM, n=5
T1 construct: endogenous in cells; host or cells: SF767 human glioblastoma cells
Text: (§1) FIG. 1. Bar graph showing PGE2 mediated cAMP signaling via EP2 receptor in human malignant glioma cells LN229 (top) and SF767 (bottom).
(§2) (n=5, *P<0.05; ***P<0.001, one-way ANOVA and post-hoc Bonferroni test). Data are shown as mean+SEM.

EP2 receptor [2] = target: T1, EP2 receptor; test: PGE2-mediated cAMP signaling in LN229 glioma cells; format: cell-based; conditions: for PGE2-promoted cAMP synthesis: antagonist 1 μM and 10 μM, n=5
Text: as §1, §2

GBM cells LN229 = test: Wound closure (migration) of COX-2-overexpressing LN229 cells; format: cell-based, human; conditions: 10 μM, n=3, compared with COX-2 overexpression group
human GBM cells SF767 = test: Cell invasion of COX-2-overexpressing SF767 cells; format: cell-based; conditions: 10 μM, measured after 48 h, n=4, P<0.01 vs control
[3] = tested on: intracranial tumors formed by human GBM cells LN229; test: Intracranial (orthotopic) tumor xenograft in athymic nude mice; format: in vivo
Text: FIG. 8. Graph showing that the survival rate of mice harboring intracranial tumors derived from human GBM cells LN229 receiving TG6-10-1 is greater than the survival rate of mice receiving vehicle only.
Data are shown as mean±SEM.
Survival rates of mice that harbored intracranial tumors derived from human GBM cells LN229 after receiving vehicle (n=20) or TG6-10-1 (n=28) for 28 days (P=2.835E-4 Kaplan-Meier survival analysis with post-hoc log-rank test).

[4] = tested on: flank tumors formed by human GBM cells SF767; test: Flank (subcutaneous) tumor xenograft in athymic nude mice; format: in vivo; conditions: 10 mg/kg, p.o., b.i.d.; measured 4 weeks after xenograft surgery; n=7, P<0.05
Text: FIG. 4. Bar graph comparing flank tumor size in athymic nude mice treated with vehicle versus mice treated with TG6-10-1 measured 4 weeks after xenograft surgery.
Data are shown as mean+SEM.

[5] = concentration-dependent, forskolin 100 μM

T1 sequence (P43116 whole entry): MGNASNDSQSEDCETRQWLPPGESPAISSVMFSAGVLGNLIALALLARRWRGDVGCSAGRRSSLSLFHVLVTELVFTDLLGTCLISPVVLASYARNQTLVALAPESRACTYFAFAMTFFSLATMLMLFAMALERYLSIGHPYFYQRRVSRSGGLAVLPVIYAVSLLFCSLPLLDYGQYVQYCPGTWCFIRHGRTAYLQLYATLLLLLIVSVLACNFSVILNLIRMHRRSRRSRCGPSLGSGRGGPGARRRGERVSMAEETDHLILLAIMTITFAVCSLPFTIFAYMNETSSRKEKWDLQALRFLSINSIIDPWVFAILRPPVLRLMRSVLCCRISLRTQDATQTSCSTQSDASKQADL

cAMP levels (EP2 receptor [1]; [5])	cAMP levels (EP2 receptor [2]; [5])	Structure (SMILES)	wound closure increased by COX-2 overexpression (GBM cells LN229)	cell invasion increased by COX-2 overexpression (human GBM cells SF767)	PGE2-promoted cAMP synthesis (EP2 receptor [1])	PGE2-promoted cAMP synthesis (EP2 receptor [2])	growth of intracranial tumors ([3]; 10 mg/kg, p.o., b.i.d., bioluminescence weekly, n=7, P<0.01)	survival of mice harboring intracranial tumors ([3]; treatment for 28 days, vehicle n=20, TG6-10-1 n=28, P=2.835E-4, Kaplan-Meier, log-rank)	growth of flank tumors [4]
increases cAMP levels	increases cAMP levels	CCCCC[C@H](O)/C=C/[C@H]1[C@H](O)CC(=O)[C@@H]1C/C=C\CCCC(=O)O [PGE2, Prostaglandin E2, reference compound]							
		COc1cc(/C=C/C(=O)NCCn2c(C)cc3ccccc32)cc(OC)c1OC [TG4-155]	attenuated	attenuated	largely blocked	largely blocked			
		COc1cc(/C=C/C(=O)NCCn2c(C(F)(F)F)cc3ccccc32)cc(OC)c1OC [TG6-10-1]	attenuated	attenuated	largely blocked	largely blocked	reduced the growth	improved survival	reduced the growth
